Results reported in PubChem BioAssay (NCI).
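Cultured in 96-well plates, cells were exposed to test compound for 48 hours across five concentrations. At the GI50, growth is halved. Definition used: TGI = concentration required for complete inhibition of growth.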

Key:
Assay in all cases: NCI tumour cell line growth inhibition, 48 h
[1] = test system: A549 NSCLC
[2] = test system: ACHN renal
[3] = test system: DLD-1 colon
[4] = test system: HOP-62 NSCLC
[5] = test system: HT29 colon
[6] = test system: K-562 leukemia
[7] = test system: KM20L2 colon
[8] = test system: NCI-H23 lung
[9] = test system: SF-295 CNS
[10] = test system: SK-MEL-5 melanoma

Cc1ccc(NCCN(C)C)c2c(=O)c3cc(O)ccc3sc12
TGI [1]: 8.08 µM | TGI [2]: 7.31 µM | TGI [3]: 19.9 µM | TGI [4]: 6.21 µM | TGI [5]: 8.2 µM | TGI [6]: 11.7 µM | TGI [7]: 22 µM | TGI [8]: 16.8 µM | TGI [9]: 18.4 µM | TGI [10]: 9.88 µM

COc1cc(/C=C2/Oc3c(OC)cccc3C2=O)ccc1O
TGI [1]: > 100 µM | TGI [2]: > 100 µM | TGI [4]: > 100 µM | TGI [5]: > 100 µM | TGI [6]: > 100 µM | TGI [8]: > 100 µM | TGI [9]: > 100 µM | TGI [10]: > 100 µM

C/C(=N\NC(=S)N1CCOCC1)c1nc2ncccc2[nH]1
TGI [1]: > 100 µM | TGI [2]: > 100 µM | TGI [4]: 96 µM | TGI [5]: > 100 µM | TGI [6]: > 100 µM | TGI [8]: > 100 µM | TGI [9]: 69.6 µM | TGI [10]: > 100 µM

CCOC(=O)c1csc(NC(=O)C(C)N2CCOCC2)n1 (configuration not stated)
TGI [1]: > 100 µM | TGI [2]: > 100 µM | TGI [4]: > 100 µM | TGI [5]: > 100 µM | TGI [6]: > 100 µM | TGI [8]: > 100 µM | TGI [9]: > 100 µM | TGI [10]: > 100 µM

CCN(CC)CCNc1ccc([N+](=O)[O-])c2sc3cc(Cl)ccc3c(=O)c12
GI50 [1]: 2.89 µM | TGI [1]: > 100 µM | GI50 [4]: 2.7 µM | TGI [4]: > 100 µM | GI50 [5]: 1.7 µM | TGI [5]: > 100 µM | GI50 [8]: 13.9 µM | TGI [8]: > 100 µM | GI50 [9]: 6.27 µM | TGI [9]: > 100 µM | GI50 [10]: 3.59 µM | TGI [10]: > 100 µM

c1cncc([O][Ge]([O]c2cccnc2)([O]c2cccnc2)[O]c2cccnc2)c1
GI50 [1]: > 100 µM | TGI [1]: > 100 µM | GI50 [3]: > 100 µM | TGI [3]: > 100 µM | GI50 [5]: > 100 µM | TGI [5]: > 100 µM | GI50 [7]: > 100 µM | TGI [7]: > 100 µM | GI50 [8]: > 100 µM | TGI [8]: > 100 µM | GI50 [9]: > 100 µM | TGI [9]: > 100 µM | GI50 [10]: > 100 µM | TGI [10]: > 100 µM

CC1(Cl)CC(C)(/C=C/Cl)C(Cl)CC1Cl (configuration not stated)
TGI [1]: 31.1 µM | TGI [2]: 27.8 µM | TGI [3]: 35.7 µM | TGI [4]: 34.7 µM | TGI [5]: 27.3 µM | TGI [6]: 57 µM | TGI [7]: 31.6 µM | TGI [8]: 44.1 µM | TGI [9]: 28.5 µM | TGI [10]: 30.2 µM

Cc1ccc(NC(=O)C(=O)Cc2cccc[n+]2[O-])cc1C
TGI [1]: > 100 µM | TGI [2]: > 100 µM | TGI [3]: > 100 µM | TGI [4]: > 100 µM | TGI [5]: > 100 µM | TGI [6]: > 100 µM | TGI [7]: > 100 µM | TGI [8]: > 100 µM | TGI [9]: > 100 µM | TGI [10]: > 100 µM

NC(Cc1ccccc1CP(=O)(O)O)C(=O)O (configuration not stated)
TGI [1]: > 100 µM | TGI [2]: > 100 µM | TGI [5]: > 100 µM | TGI [6]: > 100 µM | TGI [8]: > 100 µM | TGI [9]: > 100 µM | TGI [10]: > 100 µM

COC(=O)C(NC(=O)c1ccccc1)C(c1c(O)cc(O)cc1O)P(=O)(OC)OC (configuration not stated)
TGI [1]: > 100 µM | TGI [2]: > 100 µM | TGI [3]: > 100 µM | TGI [4]: > 100 µM | TGI [5]: > 100 µM | TGI [6]: > 100 µM | TGI [7]: > 100 µM | TGI [8]: > 100 µM | TGI [9]: > 100 µM | TGI [10]: > 100 µM

Cc1cc(Nc2ccc(Cl)cc2)nc(NCCCNc2ccnc3cc(Cl)ccc23)n1
GI50 [2]: 1.63 µM | TGI [2]: 3.06 µM | GI50 [4]: 1.53 µM | TGI [4]: 3.07 µM | GI50 [9]: 1.64 µM | TGI [9]: 3.04 µM | GI50 [10]: 1.57 µM | TGI [10]: 2.91 µM

CC(C)=CCC/C(C)=C/C=C/C(C)=C/C1C[C@@]2(C(O)O1)[C@H](CCCO)/C(=C(/C)C=O)CC[C@]2(C)O (some centres not stated)
TGI [1]: 25 µM | TGI [2]: 25.2 µM | TGI [3]: 44.4 µM | TGI [5]: 33.3 µM | TGI [6]: 28.4 µM | TGI [7]: 29.1 µM | TGI [9]: 27.7 µM

C(=C\c1c2oc(-c3ccccc3)cc(-c3ccccc3)c-2c2ccccc12)/C=C1\c2ccccc2-c2c(-c3ccccc3)cc(-c3ccccc3)[o+]c21
TGI [1]: > 100 µM | TGI [2]: > 100 µM | TGI [3]: > 100 µM | TGI [4]: > 100 µM | TGI [5]: > 100 µM | TGI [6]: > 100 µM | TGI [7]: > 100 µM | TGI [8]: > 100 µM | TGI [9]: > 100 µM | TGI [10]: > 100 µM
